These results are taken from patent publication US20040138231A1, “Pharmaceutical composition which comprise a solid dispersion of a hydroxypropyl-methylcellulose phthalate polymer” (priority 2001, published 2004).

What is called solubility is the concentration that dissolves in the medium under given conditions.

Values after ≈ are worked out from the molar mass of the structure shown. Like-named read-outs stand apart in the source and are kept apart here.

For data set [1] the following is noted: comparison compound of Kai T. et al., cited from earlier work.
Data set [2] is described as follows: Solubility Data for Compound 2. Format: physicochemical.
Data set [3] is described as follows: Solubility data for Compound 1 and the Antifungal. Format: physicochemical.
Data set [4] deals with Factor Xa (Homo sapiens, UniProt P00742). Put plainly: Factor Xa inhibitory activity versus thrombin. Format: biochemical. The settings on record: at concentrations which do not inhibit, or inhibit to a lesser extent.
Sequence of Factor Xa (P00742 235-488 limits assumed): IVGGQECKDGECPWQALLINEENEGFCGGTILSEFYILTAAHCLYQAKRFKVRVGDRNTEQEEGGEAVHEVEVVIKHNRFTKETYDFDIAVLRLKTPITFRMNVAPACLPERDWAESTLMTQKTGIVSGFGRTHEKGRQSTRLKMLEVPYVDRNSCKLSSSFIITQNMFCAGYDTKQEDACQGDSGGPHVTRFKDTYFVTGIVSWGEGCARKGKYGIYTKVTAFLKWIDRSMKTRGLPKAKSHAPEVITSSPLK
Sequence of Factor Xa (P00742 41-179 partner limits assumed): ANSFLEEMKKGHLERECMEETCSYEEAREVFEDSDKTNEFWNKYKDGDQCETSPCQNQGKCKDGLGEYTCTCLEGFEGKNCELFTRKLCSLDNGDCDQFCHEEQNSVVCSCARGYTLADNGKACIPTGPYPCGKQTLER

With `CC(C)(Sc1ccc(-n2cncn2)nn1)C(O)(Cn1cncn1)c1ccc(F)cc1F` (single isomer, unassigned; (+)) [Antifungal, (+)-2-(2,4-difluorophenyl)-3-methyl-1-(1H-1,2,4-triazol-1-yl)-3-[6-(1H-1,2,4-triazol-1-yl)pyridazin-3-ylthio]butan-2-ol], the solubility in data set [1] (Water) was 1.2 µg/mL (≈ 2.7 µM); in data set [1] (pH1.2), 3.6 µg/mL (≈ 8.1 µM); in data set [1] (pH6.8), 1.2 µg/mL (≈ 2.7 µM).
Turning to `O=C(c1ccc(-c2ccncc2)cc1)N1CCN(S(=O)(=O)c2cc3cc(Cl)ccc3[nH]2)CC1` [Compound 2, 1-(5-chloroindol-2-ylsulfonyl)-4-[4-(4-pyridyl)benzoyl]piperazine], the solubility is 585 µg/mL (≈ 1220 µM) in data set [2] (0.1M hydrochloric acid, pH 1.4, simulated gastric fluid); 227 µg/mL (≈ 472 µM) in data set [2] (0.9% saline, pH 2.5, saline or isotonic); 193 µg/mL (≈ 401 µM) in data set [2] (aqueous buffer, pH 3 citrate buffer, pH 2.9); 3 µg/mL (≈ 6.24 µM) in data set [2] (aqueous buffer, pH 5 citrate buffer, pH 5.0); < 2 µg/mL in data set [2] (aqueous buffer, pH 7 phosphate buffer, pH 7.1); 301 µg/mL (≈ 626 µM) in data set [2] (water, pH 2.6, water). For the same molecule, in data set [2] (0.1M sodium hydroxide, pH 12.7), the “Stability of sample in solubility test” value is given as “NR* = no result, sample shows evidence of degradation”.
For the molecule `O=C(c1ccc(-c2ccncc2)cc1)N1CCN(S(=O)(=O)c2ccc3cc(Cl)ccc3c2)CC1` [Compound 1, 1-(6-chloronaphth-2-ylsulfonyl)-4-[4-(4-pyridyl)benzoyl]piperazine], the “solubility in the duodenum, ileum and colon” value in data set [3] (main sites of adsorption) is listed as “low solubility”. For the same molecule, the “solubility at the acidic pH of the stomach” value in data set [3] (stomach pH) was “soluble within the acidic pH of the stomach”. For the same molecule, in data set [3] (water), the solubility is < 5 µg/mL. Also, the “Factor Xa inhibitory activity relative to thrombin inhibition” value in data set [4] is “possesses Factor Xa inhibitory activity at concentrations which do not inhibit, or which inhibit to a lesser extent, the enzyme thrombin”.
